Test results taken from ChEMBL document CHEMBL1201862, “PubChem BioAssay data set” (2004).
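Values below derive from 48-hour exposures of cells grown in 96-well plates, with endpoints linearly interpolated between the two concentrations bracketing the appropriate inhibition level. At the GI50, growth is halved.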 Active and inactive are the calls of the source. Rule as the data show it: active = GI50 up to about 1.1 µM and inactive = higher.

Columns and labels:
Experiment in all cases: growth of human tumour cells (NCI), 48 h
HT-29 = test system: HT-29
UO-31 = test system: UO-31
M14 = test system: M14
A549 = test system: A549
LOX IMVI = test system: LOX IMVI
CCRF-CEM = test system: CCRF-CEM
SNB-19 = test system: SNB-19
IGROV-1 = test system: IGROV-1
MDA-MB-435 = test system: MDA-MB-435
MDA-N = test system: MDA-N
HL-60 = test system: HL-60
EKVX = test system: EKVX
HCT-15 = test system: HCT-15
OVCAR-8 = test system: OVCAR-8
ACHN = test system: ACHN
Malme-3M = test system: Malme-3M
NCI-H522 = test system: NCI-H522
SF-268 = test system: SF-268

Structure (SMILES) | GI50 (HT-29) | GI50 (UO-31) | GI50 (M14) | GI50 (A549) | GI50 (LOX IMVI) | GI50 (CCRF-CEM) | GI50 (SNB-19) | GI50 (IGROV-1) | GI50 (MDA-MB-435) | GI50 (MDA-N) | GI50 (HL-60) | GI50 (EKVX) | GI50 (HCT-15) [µM] | GI50 (OVCAR-8) | GI50 (ACHN) | GI50 (Malme-3M) | GI50 (NCI-H522) | GI50 (SF-268)
C(CCCCc1nnc(N2CCOCC2)o1)CCCc1nnc(N2CCOCC2)o1 | > 100 µM (inactive) | > 100 µM (inactive) | > 100 µM (inactive) | > 100 µM (inactive) | > 100 µM (inactive) | > 100 µM (inactive) | > 100 µM (inactive) | > 100 µM (inactive) | > 100 µM (inactive) | > 100 µM (inactive) | > 100 µM (inactive) | > 100 µM (inactive) | > 100 | > 100 µM (inactive) | > 100 µM (inactive) |  |  | 
CCCCCCCCCCCCn1c(=O)cc(NCCCC)c2cc3c(NCCCC)cc(=O)n(CCCCCCCCCCCC)c3nc21 |  | > 100 µM (inactive) | > 100 µM (inactive) | > 100 µM (inactive) |  |  | > 100 µM (inactive) |  | > 100 µM (inactive) | > 100 µM (inactive) |  |  | > 100 |  | > 100 µM (inactive) | > 100 µM (inactive) | > 100 µM (inactive) | 99.1 µM (inactive)
CCCCNc1nc(O)c2[nH]cnc2n1 | > 100 µM (inactive) | > 100 µM (inactive) | > 100 µM (inactive) | > 100 µM (inactive) | > 100 µM (inactive) | > 100 µM (inactive) | > 100 µM (inactive) | > 100 µM (inactive) | > 100 µM (inactive) | > 100 µM (inactive) |  | > 100 µM (inactive) | > 100 | > 100 µM (inactive) | > 100 µM (inactive) | > 100 µM (inactive) | 51.8 µM (inactive) | > 100 µM (inactive)
COc1ccccc1-c1cc(O)c2ccc(C)nc2n1 | 26.6 µM (inactive) | > 100 µM (inactive) | 98.2 µM (inactive) | > 100 µM (inactive) | > 100 µM (inactive) | > 100 µM (inactive) | > 100 µM (inactive) | 40.6 µM (inactive) |  |  |  | 97.3 µM (inactive) | 43.4 | > 100 µM (inactive) | > 100 µM (inactive) | 51.5 µM (inactive) | 56.6 µM (inactive) | > 100 µM (inactive)
Cc1c2c(n3c(nc4ccccc43)c1C#N)N(c1ccc(F)cc1)CC2 | > 100 µM (inactive) | > 100 µM (inactive) |  | > 100 µM (inactive) | > 100 µM (inactive) | > 100 µM (inactive) | > 100 µM (inactive) | > 100 µM (inactive) | > 100 µM (inactive) |  | > 100 µM (inactive) |  | > 100 | > 100 µM (inactive) | > 100 µM (inactive) | > 100 µM (inactive) | > 100 µM (inactive) | > 100 µM (inactive)
O=C(/C(=C(/Br)I)c1ccccc1)c1ccccc1 | 17.9 µM (inactive) | 22.7 µM (inactive) | 16.3 µM (inactive) | 26.9 µM (inactive) | 13.9 µM (inactive) | 5.56 µM (inactive) | 38.2 µM (inactive) | 29.7 µM (inactive) | 28.8 µM (inactive) | 28.5 µM (inactive) | 28 µM (inactive) | 29 µM (inactive) | 25.1 | 23.5 µM (inactive) | 29.4 µM (inactive) | 14.5 µM (inactive) |  | 22.1 µM (inactive)
CCCCCCC(C)CC(CCCCCC)NCCOC(=O)c1ccc([N+](=O)[O-])cc1 (stereo not given) | 5.43 µM (inactive) | 11.6 µM (inactive) |  | 15.6 µM (inactive) | 7.4 µM (inactive) | 2.69 µM (inactive) | 15.9 µM (inactive) | 14.1 µM (inactive) |  |  |  | 13.7 µM (inactive) | 14.3 | 10.2 µM (inactive) | 15.1 µM (inactive) | 13.7 µM (inactive) | 13.8 µM (inactive) | 16.3 µM (inactive)
Cc1nnc2n1N=C(c1cc(F)c(Cl)cc1Cl)/C(=C/c1ccc(-c3ccc([N+](=O)[O-])cc3)o1)S2 | 69.2 µM (inactive) | 85.3 µM (inactive) | > 100 µM (inactive) | > 100 µM (inactive) | 33.2 µM (inactive) | 37.2 µM (inactive) | > 100 µM (inactive) | > 100 µM (inactive) | 50.4 µM (inactive) |  | 46.3 µM (inactive) | > 100 µM (inactive) | 53.5 | 35.7 µM (inactive) | > 100 µM (inactive) | > 100 µM (inactive) | 32.7 µM (inactive) | > 100 µM (inactive)
CN(C)c1ccc(/C=N/c2nc3cc4sc(/N=C/c5ccc(N(C)C)cc5)nc4cc3s2)cc1 | 34.1 µM (inactive) | 92.7 µM (inactive) | > 100 µM (inactive) | 12.8 µM (inactive) | 47.8 µM (inactive) | 6.3 µM (inactive) | 77.6 µM (inactive) | > 100 µM (inactive) | 33.7 µM (inactive) |  | 16.9 µM (inactive) | > 100 µM (inactive) | > 100 | 76 µM (inactive) | 66.1 µM (inactive) | > 100 µM (inactive) | 9.98 µM (inactive) | 45 µM (inactive)
Cn1c(=O)oc2cc(C(=S)N3CCC(Cc4ccccc4)CC3)ccc21 | > 100 µM (inactive) |  | > 100 µM (inactive) |  | > 100 µM (inactive) | > 100 µM (inactive) | > 100 µM (inactive) | > 100 µM (inactive) | 91.8 µM (inactive) | > 100 µM (inactive) | > 100 µM (inactive) | > 100 µM (inactive) | > 100 | > 100 µM (inactive) | > 100 µM (inactive) | > 100 µM (inactive) |  | > 100 µM (inactive)
C=C(Cl)CN1c2ccccc2C=Cc2ccccc21 | 9.44 µM (inactive) | 31.6 µM (inactive) | 17 µM (inactive) | 15.6 µM (inactive) | 11 µM (inactive) |  | 22.5 µM (inactive) | 16.1 µM (inactive) | 14.9 µM (inactive) | 15 µM (inactive) |  | 19.1 µM (inactive) | > 100 | 14.8 µM (inactive) | 7.05 µM (inactive) | 27.5 µM (inactive) | 21.6 µM (inactive) | 15.7 µM (inactive)
Cc1cccc(NC(=S)Nc2ccc(Cl)cc2)n1 | > 100 µM (inactive) | > 100 µM (inactive) | > 100 µM (inactive) |  | > 100 µM (inactive) | > 100 µM (inactive) | > 100 µM (inactive) | > 100 µM (inactive) | > 100 µM (inactive) |  | > 100 µM (inactive) | > 100 µM (inactive) | > 100 | > 100 µM (inactive) | > 100 µM (inactive) |  |  | > 100 µM (inactive)
FC(F)(F)c1ccccc1N1CCN(c2nc(-c3cccs3)nc3ccc(Br)cc23)CC1 | 29.5 µM (inactive) | 47.8 µM (inactive) | 38.7 µM (inactive) | 33.8 µM (inactive) | 34.7 µM (inactive) | 0.581 µM (active) | 50.7 µM (inactive) | 11.6 µM (inactive) | 23.9 µM (inactive) |  | 36.4 µM (inactive) | 24.4 µM (inactive) | 7.46 | 66.2 µM (inactive) | 36.6 µM (inactive) | 24 µM (inactive) | 35 µM (inactive) | 48.8 µM (inactive)
